Assays:
Test in all cases: relative viability (nuclei count vs DMSO), 5 days (fraction); higher = more cells survive
Linifanib + AZD7762 = compound: Cc1ccc(F)c(NC(=O)Nc2ccc(-c3cccc4[nH]nc(N)c34)cc2)c1 [Linifanib] + NC(=O)Nc1cc(-c2cccc(F)c2)sc1C(=O)N[C@H]1CCCNC1 [AZD7762] (partner 0.2 µM)
Method in brief: (§1)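 Cells from lung cancer lines were seeded into 1536-well plates and, one day later, dosed by pin tool. Treatments were either a single drug or a fixed dose of an anchor drug with five library-drug doses (not always all listed) in √10 steps. After 5 days, nuclei were stained in a one-step fixation (final 0.05% Triton X-100, 1% formaldehyde, 1 ug/ml Hoechst) and counted on 4× images, and relative viability is the treated-to-vehicle nuclei ratio, as the median of duplicate plates.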

Linifanib + Palbociclib = compound: Cc1ccc(F)c(NC(=O)Nc2ccc(-c3cccc4[nH]nc(N)c34)cc2)c1 [Linifanib] + CC(=O)c1c(C)c2cnc(Nc3ccc(N4CCNCC4)cn3)nc2n(C2CCCC2)c1=O [Palbociclib] (partner 0.5 µM)
Method in brief: as §1

Linifanib + Foretinib = compound: Cc1ccc(F)c(NC(=O)Nc2ccc(-c3cccc4[nH]nc(N)c34)cc2)c1 [Linifanib] + COc1cc2c(Oc3ccc(NC(=O)C4(C(=O)Nc5ccc(F)cc5)CC4)cc3F)ccnc2cc1OCCCN1CCOCC1 [Foretinib] (partner 0.25 µM)
Method in brief: as §1

Linifanib + Phenformin = compound: Cc1ccc(F)c(NC(=O)Nc2ccc(-c3cccc4[nH]nc(N)c34)cc2)c1 [Linifanib] + N=C(N)NC(=N)NCCc1ccccc1 [Phenformin] (partner 250 µM)
Method in brief: as §1

Linifanib + Dasatinib = compound: Cc1ccc(F)c(NC(=O)Nc2ccc(-c3cccc4[nH]nc(N)c34)cc2)c1 [Linifanib] + Cc1nc(Nc2ncc(C(=O)Nc3c(C)cccc3Cl)s2)cc(N2CCN(CCO)CC2)n1 [Dasatinib] (partner 0.075 µM)
Method in brief: as §1

Linifanib + Olaparib = compound: Cc1ccc(F)c(NC(=O)Nc2ccc(-c3cccc4[nH]nc(N)c34)cc2)c1 [Linifanib] + O=C(c1cc(Cc2n[nH]c(=O)c3ccccc23)ccc1F)N1CCN(C(=O)C2CC2)CC1 [Olaparib] (partner 8 µM)
Method in brief: as §1

| Cell Line | relative viability (Linifanib + AZD7762; first compound 0.03162 µM) | relative viability (Linifanib + AZD7762; first compound 0.1 µM) | relative viability (Linifanib + AZD7762; first compound 0.3162 µM) | relative viability (Linifanib + Palbociclib; first compound 0.03162 µM) | relative viability (Linifanib + Palbociclib; first compound 0.1 µM) | relative viability (Linifanib + Palbociclib; first compound 0.3162 µM) | relative viability (Linifanib + Foretinib; first compound 0.03162 µM) | relative viability (Linifanib + Foretinib; first compound 0.1 µM) | relative viability (Linifanib + Foretinib; first compound 0.3162 µM) | relative viability (Linifanib + Phenformin; first compound 0.03162 µM) | relative viability (Linifanib + Phenformin; first compound 0.1 µM) | relative viability (Linifanib + Phenformin; first compound 0.3162 µM) | relative viability (Linifanib + Dasatinib; first compound 0.03162 µM) | relative viability (Linifanib + Dasatinib; first compound 0.1 µM) | relative viability (Linifanib + Dasatinib; first compound 0.3162 µM) | relative viability (Linifanib + Olaparib; first compound 0.03162 µM) | relative viability (Linifanib + Olaparib; first compound 0.1 µM) | relative viability (Linifanib + Olaparib; first compound 0.3162 µM) |
| --- | --- | --- | --- | --- | --- | --- | --- | --- | --- | --- | --- | --- | --- | --- | --- | --- | --- | --- |
| LXF-289 | 1.11 | 1.15 | 0.934 | 0.668 | 0.612 | 0.564 | 1.09 | 0.975 | 0.936 | 0.558 | 0.536 | 0.496 | 0.29 | 0.288 | 0.236 | 1.13 | 1.2 | 0.898 |
| NCI-H23 | 0.259 | 0.287 | 0.31 | 0.486 | 0.57 | 0.487 | 1.28 | 0.964 | 1.15 | 0.773 | 0.838 | 0.749 | 0.736 | 0.928 | 0.84 | 0.358 | 0.347 | 0.186 |
| NCI-H322M | 0.594 | 0.581 | 0.552 | 0.488 | 0.487 | 0.441 | 0.939 | 1.06 | 1.02 | 0.756 | 0.819 | 0.737 | 0.253 | 0.256 | 0.216 | 0.832 | 0.809 | 0.796 |
| NCI-H358 | 0.667 | 0.495 | 0.574 | 0.132 | 0.126 | 0.114 | 0.825 | 0.794 | 0.717 | 0.375 | 0.385 | 0.322 | 0.175 | 0.204 | 0.205 | 0.521 | 0.771 | 0.55 |
| NCI-H441 | 1.03 | 1.23 | 0.958 | 0.222 | 0.24 | 0.228 | 1.08 | 0.945 | 1.27 | 0.854 | 0.93 | 0.899 | 0.646 | 0.705 | 0.639 | 0.673 | 0.5 | 0.433 |
| NCI-H460 | 0.614 | 0.555 | 0.562 | 0.133 | 0.187 | 0.152 | 0.963 | 1.01 | 0.95 | 0.546 | 0.542 | 0.489 | 0.577 | 0.6 | 0.508 | 0.539 | 0.464 | 0.471 |
| NCI-H647 | 0.435 | 0.557 | 0.389 | 0.342 | 0.506 | 0.484 | 1.03 | 1.23 | 1.12 | 0.654 | 0.441 | 0.522 | 0.194 | 0.231 | 0.183 | 0.678 | 0.68 | 0.54 |
| NCI-H650 | 0.947 | 0.99 | 0.675 | 0.37 | 0.308 | 0.376 | 1 | 1.03 | 0.994 | 0.45 | 0.449 | 0.439 | 0.461 | 0.451 | 0.444 | 0.348 | 0.397 | 0.361 |
| NCI-H727 | 0.602 | 0.62 | 0.358 | 0.596 | 0.67 | 0.651 | 1.03 | 0.921 | 0.723 | 0.609 | 0.574 | 0.609 | 0.449 | 0.344 | 0.521 | 0.938 | 0.744 | 0.784 |
| NCI-H838 | 0.907 | 0.952 | 0.953 | 0.22 | 0.223 | 0.23 | 1.05 | 1.08 | 1.02 | 0.79 | 0.642 | 0.542 | 0.286 | 0.282 | 0.27 | 0.753 | 0.783 | 0.71 |
| NCI-H1355 | 0.648 | 0.765 | 0.792 | 0.398 | 0.411 | 0.389 | 0.994 | 1.04 | 0.941 | 0.449 | 0.496 | 0.425 | 0.76 | 0.859 | 0.697 | 0.768 | 0.832 | 0.726 |
| NCI-H1395 | 0.39 | 0.431 | 0.395 | 0.656 | 0.673 | 0.691 | 0.967 | 1.05 | 0.998 | 0.444 | 0.454 | 0.414 | 0.3 | 0.394 | 0.405 | 0.462 | 0.463 | 0.461 |
| NCI-H1437 | 1.01 | 1.22 | 1.13 | 0.344 | 0.331 | 0.311 | 1.27 | 1.25 | 1.19 | 0.32 | 0.296 | 0.276 | 0.375 | 0.407 | 0.378 | 0.631 | 0.653 | 0.603 |
| NCI-H1651 | 0.428 | 0.483 | 0.544 | 0.536 | 0.527 | 0.487 | 0.774 | 1.04 | 0.66 | 0.314 | 0.368 | 0.309 | 0.499 | 0.393 | 0.398 | 0.181 | 0.202 | 0.195 |
| NCI-H1666 | 0.941 | 0.854 | 0.833 | 0.649 | 0.647 | 0.693 | 0.923 | 0.969 | 0.998 | 0.577 | 0.559 | 0.548 | 0.856 | 0.833 | 0.779 | 0.809 | 0.716 | 0.766 |
| NCI-H1734 | 0.564 | 0.591 | 0.538 | 0.322 | 0.357 | 0.394 | 0.87 | 0.989 | 0.856 | 0.384 | 0.454 | 0.366 | 0.529 | 0.53 | 0.428 | 0.591 | 0.68 | 0.597 |
| NCI-H1755 | 0.457 | 0.505 | 0.495 | 0.47 | 0.461 | 0.429 | 0.934 | 0.912 | 0.902 | 0.666 | 0.621 | 0.571 | 0.458 | 0.406 | 0.388 | 0.875 | 0.903 | 0.835 |
| NCI-H1793 | 0.269 | 0.844 | 0.541 | 0.31 | 0.349 | 0.292 | 0.843 | 0.953 | 0.734 | 0.278 | 0.379 | 0.321 | 0.394 | 0.439 | 0.406 | 0.848 | 1.13 | 0.802 |
| NCI-H1915 | 0.743 | 0.701 | 0.681 | 0.541 | 0.548 | 0.507 | 1.08 | 1.15 | 1.04 | 0.368 | 0.378 | 0.352 | 0.301 | 0.359 | 0.36 | 0.264 | 0.26 | 0.255 |
| NCI-H1944 | 0.43 | 0.65 | 0.479 | 0.334 | 0.353 | 0.35 | 0.928 | 0.889 | 0.876 | 0.212 | 0.205 | 0.2 | 0.204 | 0.215 | 0.216 | 0.42 | 0.434 | 0.367 |
| NCI-H1975 | 0.688 | 0.706 | 0.618 | 0.6 | 0.783 | 0.551 | 0.892 | 1.01 | 1.02 | 0.418 | 0.433 | 0.406 | 0.396 | 0.367 | 0.344 | 0.797 | 0.881 | 0.796 |
| NCI-H1993 | 0.974 | 0.894 | 0.831 | 0.688 | 0.826 | 0.725 | 0.807 | 0.88 | 0.758 | 0.44 | 0.514 | 0.504 | 0.683 | 0.551 | 0.681 | 1.03 | 1.13 | 0.963 |
| NCI-H2085 | 1.08 | 0.943 | 0.974 | 0.485 | 0.474 | 0.463 | 0.979 | 1.12 | 0.806 | 0.878 | 0.786 | 0.712 | 0.252 | 0.239 | 0.268 | 0.727 | 0.803 | 0.739 |
| NCI-H2087 | 1.33 | 1.45 | 1.32 | 0.219 | 0.285 | 0.269 | 1.08 | 1.26 | 0.993 | 0.431 | 0.51 | 0.431 | 1.12 | 1.22 | 0.787 | 0.618 | 0.764 | 0.598 |
| NCI-H2126 | 1.02 | 1.06 | 0.983 | 0.376 | 0.388 | 0.379 | 1.22 | 1.06 | 1.2 | 0.557 | 0.535 | 0.542 | 0.622 | 0.718 | 0.622 | 0.986 | 0.912 | 0.9 |
| NCI-H2170 | 0.831 | 0.954 | 0.843 | 0.385 | 0.421 | 0.402 | 0.792 | 1.01 | 0.99 | 0.426 | 0.411 | 0.378 | 0.662 | 0.611 | 0.579 | 0.612 | 0.701 | 0.566 |
| NCI-H2342 | 0.506 | 0.506 | 0.625 | 0.594 | 0.562 | 0.481 | 1.18 | 1.2 | 1.15 | 0.679 | 0.624 | 0.667 | 0.333 | 0.331 | 0.332 | 0.512 | 0.481 | 0.381 |
| NCI-H2347 | 0.822 | 0.803 | 0.653 | 0.462 | 0.441 | 0.404 | 1.09 | 1.25 | 0.782 | 0.517 | 0.864 | 0.298 | 0.356 | 0.399 | 0.284 | 0.629 | 0.646 | 0.565 |
| NCI-H2405 | 0.71 | 0.777 | 0.803 | 0.56 | 0.532 | 0.513 | 1.06 | 1.04 | 1.07 | 0.396 | 0.4 | 0.382 | 0.212 | 0.199 | 0.219 | 0.94 | 0.835 | 0.828 |

Reference: the supplement of paper PMC10307832
